Source: patent publication US20160074409A1, “Treatment of Skeletal-Related Disorders” (priority 2013, published 2016)

Test system: MDA-MB-231 breast carcinoma cells
Assay: Bone density in bone metastasis model (femoral and tibial X-ray densitometry)
Format: in vivo, Nude (rnu/rnu) female rats
Settings: metastatic bone cancer model, MDA-MB-231 cells injected into tibia; Group G5: 90 mg/kg BID PO, N=6; 6 weeks; FIG. 1
Experimental: Nude (rnu/rnu) female rats were obtained from Charles River (Wilmington, Mass.). The rats were pair-housed in polycarbonate micro-isolator cages lined with autoclaved bedding. Autoclaved reverse osmosis (RO) water and autoclaved standard rat chow were provided ad libitum. Body weights were recorded weekly throughout the course of the studies. Animals were maintained for 6 weeks and euthanized by carbon dioxide inhalation at the end of the experiment. The animals were randomized to study groups by body weight as follows: G1: vehicle BID PO (N=6), G2: 0.04 mg/kg zoledronate QWK IV (N=6), G5: 90 mg/kg Compound of Formula IV BID PO (N=6), and G6: No implantation (N=3).
MDA-MB-231 breast carcinoma cells were propagated by standard tissue culture methods in RPMI media containing 10% fetal bovine serum. Exponentially growing cells were trypsinized and resuspended in phosphate-buffered saline at a concentration of 2.5×10^7 cells/mi. Rats were maintained under isoflurane anesthesia during the tumor injection procedure. […]
Radiographs were taken with rats under general anaesthesia. […] Radiographs were scanned and analysed. […]
Femoral and tibial X-ray densitometry was performed. In brief, bones were X-rayed, the film was scanned and the electronic image then analysed by a real-colour image analysis system. Pixel density was then determined and used as a measure of disease progression.

Which “bone density (femoral and tibial X-ray densitometry, pixel density)” value does the source give for `CC#CC(=O)N1CCCC1c1nc(-c2ccc(C(=O)Nc3ccccn3)cc2)c2c(N)ncnn12` (stereo not shown) [Compound of Formula IV] here?
Its value is “inhibition of the decrease in bone density”.
